Laboratory results: patent publication US11826402B2, “Combination therapy involving antibodies against claudin 18.2 for treatment of metastatic pancreatic adenocarcinoma” (Astellas Pharma Inc., priority 2013, dated 2023)
In brackets after ≈: the same amount, converted by molar mass. Entries after “also recorded” stand apart in the source; their conditions may differ.

Columns and labels:
[1] = tested on: MiaPaCa-2-LVT xenografts; test: Subcutaneous MiaPaCa-2-LVT xenograft treatment
Procedure: MiaPaCa2-LVT xenograft tumors were inoculated by injection of 1 e7 MiaPaCa2-LVT cells subcutaneous into the flank of 15 female Hsd:Athymic Nude-Foxn1nu mice for each treatment group. […] Treatment was continued semi-weekly with alternating i.p. and i.v. injection until animals were sacrificed. […] The size of s.c. tumors was measured twice weekly (mean+SEM). […] Mice were sacrificed when tumor reached a volume of 1400 mm^3 or tumor became ulcerous.
MiaPaCa2-LVT xenograft tumors were inoculated by injection of 5 e6 MiaPaCa2-LVT cells subcutaneous into the flank of 10 female Hsd:Athymic Nude-Foxn1nu mice for each treatment group. 4 days after tumor cell injection, treatment was initiated with chemotherapy (50 mg/kg gemcitabine i.p) and were continued weekly for six weeks. […] The size of tumors was measured twice weekly (mean+SEM). […] Mice were sacrificed when tumors reached a volume of 1400 mm^3 or tumors became ulcerous.
(§3) Xenograft tumors were inoculated by subcutaneous injection of tumor cells in 200 μl PBS into the flanks of female Hsd:Athymic Nude-Foxn1^nu mice. Tumor bearing mice were treated with 0 μg, 200 μg, 400 μg or 800 μg antibody injected i.v. weekly or alternating i.v./i.p. semi-weekly. Chemotherapeutic agents were applied i.p. weekly or semi-weekly. Tumor sizes and animal health were monitored semi-weekly. At the end of chemotherapy treatment, antibody applications were continued until tumors reached a volume of >1400 mm^3 or until tumors became ulcerous. Tumor samples were cryo conserved or fixed in 4% formalin for subsequent analysis.

[2] = tested on: BxPC3-LVT xenografts; test: Subcutaneous BxPC3-LVT xenograft treatment
Procedure: BxPC3-LVT xenograft tumors were inoculated by injection of 1 e7 BxPC3-LVT cells subcutaneous into the flank of 15 female Hsd:Athymic Nude-Foxn1nu mice for each treatment group. […] Treatment was continued semi-weekly with alternating i.p. and i.v. injection until animals were sacrificed. […] The size of s.c. tumors was measured twice weekly (mean+SEM, * p<0.05). […] Mice were sacrificed, when tumor reached a volume of 1400 mm^3 or tumor became ulcerous.
BxPC3-LVT xenograft tumors were inoculated by injection of 8.5 e6 BxPC3-LVT cells subcutaneous into the flank of 10 female Hsd:Athymic Nude-Foxn1nu mice for each treatment group. On the third day after tumor cell injection, treatment was initiated with chemotherapy (50 mg/kg gemcitabine i.p., respectively 50 mg/kg gemcitabine plus 5 mg/kg oxaliplatin i.p.) and were continued weekly for six weeks. […] The size of s.c. tumors was measured twice weekly (mean+SEM). […] Mice were sacrificed when tumors reached a volume of 1400 mm3 or tumors became ulcerous.
BxPC3-LVT xenograft tumors were inoculated by injection of 8.5 e6 BxPC3-LVT cells subcutaneous into the flanks of 10 female Hsd:Athymic Nude-Foxn1nu mice for each treatment group. On the third day after tumor cell injection, treatments were initiated with chemotherapy (100 mg/kg gemcitabine i.p., or 100 mg/kg gemcitabine plus 5 mg/kg oxaliplatin i.p.) and were continued weekly for six weeks. […] The size of s.c. tumors was measured twice weekly (mean+SEM). […] Mice were sacrificed when tumors reached a volume of 1400 mm^3 or tumors became ulcerous.
as §3

[3] = tested on: established MiaPaCa-2-LVT xenograft tumors; test: Established MiaPaCa-2-LVT xenograft tumors, high dose gemcitabine; format: in vivo, mice; conditions: established MiaPaCa-2-LVT tumors, gemcitabine 2×150 mg/kg per week, independent from IMAB362
Description: 9 days after subcutaneous tumor inoculation, tumor bearing mice reorganised in homogenous treatment groups with 8 animals per group and treatment was initiated.

[4] = tested on: DANG; test: IMAB362-mediated ADCC assay (luciferase, human PBMCs, E:T 40:1), also after chemotherapy pretreatment; format: cell-based
Procedure: For ADCC assays pancreatic cancer cell lines were transiently transfected with luciferase RNA. […] RNA was stored in 22 μl aliquots at −80° C. […] In each assay cells were detached with PBS/5 mM EDTA and 2.5×10^6 cells dissolved in 250 μl X-Vivo were mixed in ice-cold cuvettes with 10 μg RNA. Cells were immediately electroporated (GenePulser Xcell, Biorad) and resuspended in pre-warmed Assay-medium adjusting the cells to 5×10^5 cells/ml.
The viability of the cells was determined directly after electroporation using CASY or by staining cells with Trypan blue and determining the percentage of dead cells in the Neubauer chamber. Cells were seeded in quadruplicates in white 96-well plates (2.5×10^4 cells/well) and incubated for 24 h. Subsequently, luciferase activity was measured in a luminometer (Tecan Infinite200) after addition of luciferin mix for 90 min. Transfection was successful and consequently ADCC measurable, if RLU values >1.000 were obtained.
Pancreatic cancer target cells were seeded two days in advance in flasks to obtain 80-90% confluent cultures on the day ADCC started. […] NUGC-4 sub 10cH11 subE10 Luci #2 cells (8000 cells/well) were seeded in addition as positive controls in all assays. Cells were cultivated for 4-6 h before addition of antibody and purified PBMCs. PBMCs were prepared from fresh human buffy coat obtained from healthy donors. About 3× 20-25 ml blood was diluted (1:2) with PBS and carefully layered on 4×15 ml Ficol-Paque Plus (GE Healthcare) in 50 ml Falcon tubes. Gradients were centrifuged (25 min, 700 g). After centrifugation, peripheral blood mononuclear cells (PBMC) were collected from the interphase, washed in PBS/2 mM EDTA, centrifuged (5 min, 468 g), again resuspended in PBS/2 mM EDTA and centrifuged (10 min, 208 g) to remove the platelets. The pellets were resuspended in 50 ml PBS/2 mM EDTA and cells were counted.
Of each dilution 25 μl was added in quadruplicates to the target cells. PBS without antibodies was added in the medium and lysis control wells. Subsequently, 25 μl PBMCs were added to each well (E:T ratio=40:1) and plates were incubated for 24 h±1 h at 37° C., 5% CO2.
The next day, 10 μl 8% Triton X100/PBS solution was added to the lysis control wells and 10 μl PBS in all other wells. […] Luminescence resulting from the oxidation of […] by the luciferase of viable cells was measured using a microplate-reader (Infinite200, Tecan, Switzerland). Percentage of cellular cytotoxicity was calculated using the following formula: Specific killing (%)=100−[(RLUsample−RLUtriton)/(RLUmedium ctrl−RLUtriton)×100]
12. Cultivation of Pancreas Cancer Cell Lines with Chemotherapeutic Drugs for ADCC or CDC For DANG 4 to 6 E+06 cells were seeded and cultivated for 2 days in medium or medium+1 ng/ml gemcitabine or 1 ng/ml gemcitabine+10 ng/ml oxaliplatin.
On the day ADCC started, the protocol described above was followed and cell surface expression of CLDN18 was determined in FACS analysis as described above.
PBMCs of different donors were added in each experiment.

[5] = tested on: Capan1-LVT; test: Inhibition of proliferation (XTT viability assay, 4 days); format: cell-based; conditions: Homo sapiens, 96 h, 4 days exposure
Procedure: (§1) To analyze dose-response curves of each chemotherapeutic agent, a proliferation assay was performed.
(§2) Cells were seeded in 96 well plates and after 4-6 hours gemcitabine or oxaliplatin was added in following concentrations: 1000, 500, 250, 100 and 20 ng/ml. The proliferation assay was incubated for 4 days at 37° C. and 5% CO2. 50 μl XTT complete reagent (50 parts XTT+1 part coupl. reagent mixed) was added and incubated at 37° C. Measurement of absorbance (cells plus supernatant) was done with the Tecan Safire after 3 h and 4 h. Inhibition of proliferation was calculated compared to medium values set as 100%. EC50 values for gemcitabine and oxaliplatin were calculated in the GraphPad Prism program.

[6] = tested on: BxPC3-LVT; test: as above; format: cell-based, human
Procedure: as §1, §2

[7] = tested on: MiaPaCa-2-LVT; test: as above; format: cell-based, human
Procedure: as §1, §2

[8] = tested on: DANG; test: as above; format: cell-based, human
Procedure: as §1, §2

[9] = Phase I clinical study, single intravenous administration; format: in vivo, human
Description: IMAB362 is in early clinical testing. A phase I clinical study has been conducted in human. […] In an ongoing phase IIa clinical study IMAB362 is given repetitively.

[10] = tested on: Panc01; test: IMAB362-mediated ADCC assay; format: cell-based, human; conditions: at least 2 donors
[11] = target: CLDN18.1 (Homo sapiens, UniProt P56856); test: Binding to other claudin family members (background)
CLDN18.1, sequence (P56856 whole entry): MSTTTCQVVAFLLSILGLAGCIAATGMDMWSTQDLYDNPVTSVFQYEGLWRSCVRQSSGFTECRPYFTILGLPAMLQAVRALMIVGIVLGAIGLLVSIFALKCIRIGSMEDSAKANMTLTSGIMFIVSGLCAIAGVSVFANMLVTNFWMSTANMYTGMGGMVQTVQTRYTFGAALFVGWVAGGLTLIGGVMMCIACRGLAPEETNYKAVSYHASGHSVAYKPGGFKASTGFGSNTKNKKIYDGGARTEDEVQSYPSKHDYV

[12] = tested on: HPAFII; test: IMAB362-mediated ADCC assay; format: cell-based, human; conditions: at least 2 donors
[13] = tested on: HUP-T3; test: IMAB362-mediated ADCC assay; format: cell-based, human; conditions: at least 2 donors
[14] = Homo sapiens, 96 h, 4 days exposure

Nc1ccn([C@@H]2O[C@H](CO)[C@@H](O)C2(F)F)c(=O)n1 [gemcitabine, 4-amino-1-(2-deoxy-2,2-difluoro-β-D-erythro-pentofuranosyl)pyrimidin-2(1H)-one]
therapeutic effect of chemotherapy without IMAB362 ([1]; MiaPaCa-2-LVT xenograft, up to 100 mg/kg gemcitabine): no significant therapeutic effect
therapeutic effect of chemotherapy without IMAB362 ([2]; BxPC3-LVT xenograft, up to 100 mg/kg gemcitabine): no significant therapeutic effect
tumor growth [3]: strongly inhibited in tumor growth
effect of pretreatment on IMAB362 mediated ADCC ([4]; DANG pretreated 2 days, Gem 1 ng/ml or Gem 1 ng/ml+Ox 10 ng/ml): higher susceptibility for IMAB362 mediated ADCC
IC50 [5]: ~1 ng/mL (≈ 3.8 nM)
sensitivity of cells to the agent [6]: very sensitive
IC50 [6, 14]: ~2 ng/mL (≈ 7.6 nM)
sensitivity of cells to the agent [7]: less sensitive
IC50 [7, 14]: 0.05 µg/mL (≈ 190 nM)
sensitivity of cells to the agent [8]: very sensitive
IC50 [8, 14]: ~1 ng/mL (≈ 3.8 nM)

IMAB362: chimeric IgG1 antibody directed against CLDN18.2, developed by Ganymed Pharmaceuticals AG
median survival versus saline control ([1]; MiaPaCa-2-LVT s.c. xenograft, 200 μg IMAB362 semi-weekly): prolonged median survival
tumor growth versus saline control ([1]; MiaPaCa-2-LVT s.c. xenograft, IMAB362 single agent): significantly inhibited tumor growth; also recorded: significant tumor growth retardation
measured tumor markers ([9]; one patient, within 4 weeks after treatment): decreased significantly
tolerability in patients ([9]; single i.v. administration 33-1000 mg/m^2, observed 28 days): very well tolerated
ADCC EC50 [10]: n.m.
ADCC Max. lysis [10]: 0-4.5%
binding to CLDN18.1 and other claudin family members [11]: does not bind
median survival versus saline control ([2]; BxPC3-LVT s.c. xenograft, 200 μg IMAB362 semi-weekly): prolonged median survival
tumor growth versus saline control ([2]; BxPC3-LVT s.c. xenograft, IMAB362 single agent): significantly inhibited tumor growth; also recorded: significant tumor growth retardation
ADCC EC50 [12]: n.m.
ADCC Max. lysis [12]: n.m.
ADCC killing by IMAB362 and PBMCs ([4]; DANG): efficiently killed
EC50 of effector cell-dependent killing (ADCC) ([4]; DANG (pooled with Panc05.04), PBMCs of different donors, E:T 40:1): 0.1 to 38 µg/mL
maximum killing rate (ADCC) ([4]; DANG, at highest antibody concentrations): ~50%
ADCC EC50 ([4]; DANG, at least 2 donors): 4976.5 ± 4125.4 ng/mL
ADCC Max. lysis ([4]; DANG, at least 2 donors): 52.5 ± 7.8%
ADCC EC50 [13]: n.m.
